In the supplement of paper PMC8671470:

Assays:
Details in all cases: 72 h
MOLM-13 [1] = tested on: MOLM-13
In short: (§1)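 Fifteen myeloid leukaemia lines in RPMI 1640 were treated for 72 h at 37 °C and 5% CO2 with five tenfold doses from 1 to 10,000 nM, in duplicate. ATP luminescence was normalised to vehicle and to a positive control at 10 µM, then fitted with a four-parameter log-logistic model. The IC50 came from these fits.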

ML-2 [2] = tested on: ML-2
In short: as §1

SHI-1 [3] = tested on: SHI-1
In short: as §1

KCL-22 [4] = tested on: KCL-22
In short: as §1

KG-1 [5] = tested on: KG-1
In short: as §1

BV-173 [6] = tested on: BV-173
In short: as §1

Mono-Mac-6 [7] = tested on: Mono-Mac-6
In short: as §1

LAMA-84 [8] = tested on: LAMA-84
In short: as §1

HEL [9] = tested on: HEL
In short: as §1

THP-1 [10] = tested on: THP-1
In short: as §1

MV4-11 [11] = tested on: MV4-11
In short: as §1

HL-60 [12] = tested on: HL-60
In short: as §1

KU-812 [13] = tested on: KU-812
In short: as §1

NOMO-1 [14] = tested on: NOMO-1
In short: as §1

K-562 [15] = tested on: K-562
In short: as §1

MOLM-13 [16] = test: cell viability (% survival relative to DMSO control, bortezomib = 0%); higher = less cytotoxic
In short: (§2)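 Fifteen myeloid leukaemia cell lines (10 AML, 5 CML) were seeded at a density titrated to the linear growth range. They went into 384-well plates with compounds pre-printed at 1, 10, 100, 1000 or 10000 nM in duplicate. After 72 h at 37 °C with 5% CO2, viability was read by CellTiter-Glo luminescence. Values are percent survival, with vehicle set to 100% and a 10 µM positive control to 0%, averaged over the duplicates.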

ML-2 [17] = test: as above
In short: as §2

SHI-1 [18] = test: as above
In short: as §2

KCL-22 [19] = test: as above
In short: as §2

KG-1 [20] = test: as above
In short: as §2

BV-173 [21] = test: as above
In short: as §2

Mono-Mac-6 [22] = test: as above
In short: as §2

LAMA-84 [23] = test: as above
In short: as §2

HEL [24] = test: as above
In short: as §2

THP-1 [25] = test: as above
In short: as §2

MV4-11 [26] = test: as above
In short: as §2

HL-60 [27] = test: as above
In short: as §2

KU-812 [28] = test: as above
In short: as §2

NOMO-1 [29] = test: as above
In short: as §2

K-562 [30] = test: as above
In short: as §2

CC(C)(C)c1ccc(S(=O)(=O)NCc2ccc(C(=O)Nc3cccnc3)cc2)cc1 [STF-31]
Details	IC50 (cell viability) [nM]
BV-173 [6]	38.3
HEL [9]	73.8
HL-60 [12]	143
K-562 [15]	242
KCL-22 [4]	437
KG-1 [5]	144
KU-812 [13]	109
LAMA-84 [8]	169
ML-2 [2]	228
MOLM-13 [1]	3570
MV4-11 [11]	45.1
Mono-Mac-6 [7]	548
NOMO-1 [14]	74
SHI-1 [3]	> 10000
THP-1 [10]	> 10000

cell viability [%]
Details	1 nM	10 nM	100 nM	1000 nM	10000 nM
BV-173 [21]	96.3	111	3.51	0.776	0.807
HEL [24]	107	119	35.3	3.71	2.64
HL-60 [27]	102	169	65.7	-0.0172	0.631
K-562 [30]	109	103	82.2	11.9	3.63
KCL-22 [19]	85	80	98.4	9.33	1.6
KG-1 [20]	147	137	72.6	19.7	18.4
KU-812 [28]	91.8	107	58.6	14.2	7.98
LAMA-84 [23]	97.5	94.6	68.8	6.82	2.61
ML-2 [17]	95.8	101	83.5	3.23	0.455
MOLM-13 [16]	111	154	96.6	109	0.127
MV4-11 [26]	98	139	3.11	0.253	0.177
Mono-Mac-6 [22]	107	114	105	36.9	31
NOMO-1 [29]	102	95.7	40.1	6.08	0.284
SHI-1 [18]	89.7	118	108	101	57.4
THP-1 [25]	101	95.9	101	103	110

N[C@@H](CC(=O)N1CCn2c(nnc2C(F)(F)F)C1)Cc1cc(F)c(F)cc1F [Sitagliptin]
Details	IC50 (cell viability) [nM]
BV-173 [6]	> 10000
HEL [9]	> 10000
HL-60 [12]	> 10000
K-562 [15]	> 10000
KCL-22 [4]	> 10000
KG-1 [5]	> 10000
KU-812 [13]	> 10000
LAMA-84 [8]	> 10000
ML-2 [2]	> 10000
MOLM-13 [1]	> 10000
MV4-11 [11]	> 10000
Mono-Mac-6 [7]	> 10000
NOMO-1 [14]	> 10000
SHI-1 [3]	> 10000
THP-1 [10]	> 10000

cell viability [%]
Details	1 nM	10 nM	100 nM	1000 nM	10000 nM
BV-173 [21]	89.5	103	99.9	93.4	102
HEL [24]	90.7	95.3	111	95.4	103
HL-60 [27]	101	95.5	97.1	91.3	95.2
K-562 [30]	93.8	96.9	103	99.7	113
KCL-22 [19]	94	114	106	94.4	92.8
KG-1 [20]	90.9	104	108	95.2	103
KU-812 [28]	94.6	98.9	91.9	95.5	102
LAMA-84 [23]	93.1	99.2	94	102	93.8
ML-2 [17]	90	102	99.3	97.4	97.9
MOLM-13 [16]	95.5	110	92.5	84.3	95.4
MV4-11 [26]	89.2	102	99.3	92.2	101
Mono-Mac-6 [22]	92.5	83.8	96.1	85.6	100
NOMO-1 [29]	99.8	96.9	91.3	101	100
SHI-1 [18]	95.2	104	105	96.8	97.4
THP-1 [25]	97.8	99.7	106	99	97.6

CO[C@H]1C[C@@H]2CC[C@@H](C)[C@@](O)(O2)C(=O)C(=O)N2CCCC[C@H]2C(=O)O[C@H]([C@H](C)C[C@@H]2CC[C@@H](OC(=O)C(C)(CO)CO)[C@H](OC)C2)CC(=O)[C@H](C)/C=C(\C)[C@@H](O)[C@@H](OC)C(=O)[C@H](C)C[C@H](C)/C=C/C=C/C=C/1C [Temsirolimus]
Details	IC50 (cell viability) [nM]
BV-173 [6]	3.9
HEL [9]	1150
HL-60 [12]	148
K-562 [15]	5.35
KCL-22 [4]	13.3
KG-1 [5]	2.05
KU-812 [13]	1.11
LAMA-84 [8]	20.8
ML-2 [2]	2590
MOLM-13 [1]	1.98
MV4-11 [11]	61.1
Mono-Mac-6 [7]	4.87
NOMO-1 [14]	4420
SHI-1 [3]	28.2
THP-1 [10]	53.9

cell viability [%]
Details	1 nM	10 nM	100 nM	1000 nM	10000 nM
BV-173 [21]	96.5	54.8	57.6	45.7	39.5
HEL [24]	101	85.3	77.3	65.2	46.3
HL-60 [27]	101	96.8	90	73.4	73
K-562 [30]	94.8	58.4	47.2	44.7	33.5
KCL-22 [19]	95.8	58.5	47.8	32.5	23.6
KG-1 [20]	80.8	47.2	46.5	39.2	33.6
KU-812 [28]	71.8	42.9	44.7	38.8	36.1
LAMA-84 [23]	90.6	63.2	65	49.2	40.9
ML-2 [17]	84.3	71.5	70.4	60.3	38.2
MOLM-13 [16]	78.5	41.6	40.9	29.8	30.6
MV4-11 [26]	89.6	63.6	62.3	53.2	37.3
Mono-Mac-6 [22]	99.2	49.4	48	35.1	38
NOMO-1 [29]	79.9	67.5	76.8	60.9	52.9
SHI-1 [18]	93.3	71.2	80.4	58.8	59.3
THP-1 [25]	91.6	75	76.8	57.3	55.6
